Columns and labels:
[1] = Bioavailability study (oral C2E5 vs intravenous DTPA); format: in vivo, rat
Method: A bioavailability study was conducted in which five rats were intravenously administered 5 mg of DTPA and another 5 rats were orally administered an equivalent […] dose (approximately 7 mg) of C2E5 in a 10% ethanol solution. Blood samples were obtained at regular intervals from an in-dwelling catheter that had been surgically implanted prior to the administration of the doses.

[2] = Small Animal Decorporation Efficacy Study; format: in vivo; conditions: rats; oral C2E5 compared with IV administration of equivalent doses of DTPA

CCOC(=O)CN(CCN(CC(=O)OCC)CC(=O)OCC)CCN(CC(=O)OCC)CC(=O)OCC [C2E5, DTPA Pentaethyl Ester]
bioavailability ([1]; rat model, oral, approximately 7 mg C2E5 in a 10% ethanol solution, compared with 5 mg DTPA intravenously): ~100%
C2E5 detected in the plasma ([1]; rat, after oral C2E5 in a 10% ethanol solution): no C2E5 can be detected in the plasma
conversion to DTPA after absorption from the gastrointestinal tract ([1]; rat, oral C2E5): quantitatively and rapidly converted to DTPA
blood concentration profile compared to IV DTPA ([1]; rat, oral C2E5 vs 5 mg DTPA intravenously): lower blood levels and a longer duration compared to IV DTPA
decorporation of ^241Am [2]: compared favorably
